We go through 15 compounds from patent US9233098B2, “Nitrogen-containing fused ring compounds as CRTH2 antagonists” (KBP Biosciences Co., Ltd., priority 2011, dated 2016).

The target of test [1] is T1, CRTH2 receptor (Homo sapiens, UniProt Q9Y5Y4).
T1 construct: host or cells: CHO-K1/CRTH2/Gα15
T1 sequence (Q9Y5Y4 1-395): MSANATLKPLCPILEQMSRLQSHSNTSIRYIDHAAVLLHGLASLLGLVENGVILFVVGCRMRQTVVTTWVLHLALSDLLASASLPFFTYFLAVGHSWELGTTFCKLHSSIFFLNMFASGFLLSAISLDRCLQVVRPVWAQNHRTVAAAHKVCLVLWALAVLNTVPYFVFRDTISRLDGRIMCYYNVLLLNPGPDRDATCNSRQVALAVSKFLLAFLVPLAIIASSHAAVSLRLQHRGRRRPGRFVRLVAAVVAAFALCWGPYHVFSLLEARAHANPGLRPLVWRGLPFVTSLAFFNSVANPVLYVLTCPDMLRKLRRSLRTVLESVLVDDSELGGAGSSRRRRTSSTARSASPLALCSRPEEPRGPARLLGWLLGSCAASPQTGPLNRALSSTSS
The test can be described thus: Calcium flux FLIPR assay, antagonism against CRTH2 receptor (PGD2 at EC80). Format: cell-based. The note with it: CHO-K1/CRTH2/Gα15 cells; blocking activation induced by PGD2 at EC80. As for the experimental part: Test procedure The test was performed by Nanjing GenScript Biotech Ltd. by calcium flux assay. Test procedure and results are as follows:
Material for test was weighed accurately, and DMSO was added to dissolve the material for test, mixed and homogenized sufficiently, and formulated to 50 mM. And then, it was diluted to 50 μM by using 20 mM HEPES (hydroxyethylpiperazine ethanesulfonic acid) buffer solution at pH 7.4, and the maximum concentration of the compound was 10000 nM. It was further diluted by 3 folds as a series, and consecutively diluted to 10 concentrations, to reserve.
FLIPR Assay (Real Time Fluorescence Imaging Analysis)
In a 384 black microwell plate, 20 μl of cell solution containing 20000 CHO-K1/CRTH2/Gα15 was added, and was incubated at 37° C., 5% CO2 for 18 h. Then, 20 μl of stain in the FLIPR® Calcium 4 assay kit (kit) was added, and 10 μl of compound solution was added. Then, it was incubated at 37° C. for 60 min, and was incubated at room temperature for 15 min. Within 20 seconds, PGD2 HEPES buffer solution of an agonist PGD2 (prostaglandin D2) at the concentration of EC80 was added, and the values of fluorescence of 21-120 seconds were detected.
Data Processing ΔRFU(Relative fluorescence intensity)=maximum fluorescence value of 21-120 seconds−average value of fluorescence value of 1-20 seconds. Inhibition ratio={1−(ΔRFUcompound−ΔRFUbackground)/(ΔRFUagonists control−ΔRFUbackground)}×100 IC50 values of the compounds (i.e. the concentration of the compound for test needed for blocking 50% of the activation of CRTH2 receptor induced by PGD2 at the concentration of EC80) were calculated based on the inhibition ratios. Test Results and Conclusions

Test [2] relates to OVA induced BALB/c mice asthma model. The test is described as follows: OVA induced mice asthma model, cell count of pulmonary alveoli irrigating solution (oral administration). It is filed as in vivo. The note with it: 30 mg/kg oral bid, Mean ± SEM. As for the experimental part: Test procedure and results are as follows:
After acclimation, female BALB/c mice were divided into a blank control group, a model group and an administration group based on body weight randomly. Animal groups, dosage of administration and volume of administration were as detailed in Table 2. The model group and the administration group were intraperitoneally injected with OVA (ovalbumin) solution (containing […] and 2 mg potassium aluminium sulfate) 0.1 mL/animal to allergize on days 1, 14, the blank control group was injected with PBS (phosphate buffer solution). On days 28, 29, 30, 1% OVA was atomized and inhaled continuously to activate for 30 min, for the blank control group replaced with PBS. On days 27, 28, 29, 30, 31, the animals were administered orally with the pharmaceutical and the solvent. The blank control group was administered with the solvent 2 times every day, 1 h before inhalation of PBS and 7 h after the inhalation; the model group was administered with the solvent 2 times every day, 1 h before the inhalation of OVA for activation and 7 h after activation; the administration group was administered with the pharmaceutical 2 times every day, 1 h before the inhalation of OVA for activation and 7 h after activation. On day 32, the animals were executed, immediately irrigated the lung with 0.5 mL PBS (containing 1% FBS) via bronchus, and the irrigation was repeated 2 times. The irrigating solutions were combined, centrifugated, and the cells were resuspended with 1.5 mL PBS (containing 1% FBS). Cell count of bronchus pulmonary alveoli irrigating solution.

Marks after values point to notes of the source that are not given here.

The term IC50 denotes the concentration needed to halve the response being measured. Regarding `Cc1c(CC(=O)O)c2ccccc2n1Cc1ccc(NC(=O)c2ccc3ccccc3c2)cc1` [Compound 1, 2-[1-[4-(2-naphthamido)benzyl]-2-methyl-1H-indol-3-yl]acetic acid], in test [1], the IC50 turned out to be 2.6 nM.
Same read-out and setting: in the case of `Cc1c(Cc2ccc(NC(=O)c3ccc4ccccc4c3)cc2)c2ccccc2n1CC(=O)O` [Compound 2, 2-[3-[4-(2-naphthamido)benzyl]-2-methyl-1H-indol-1-yl]acetic acid] it was 2.3 nM; in that of `Cc1c(Cc2ccc(NC(=O)c3ccc(C(F)(F)F)cc3)cc2)c2ccccc2n1CC(=O)O` [Compound 3, 2-[2-methyl-3-[4-[4-(trifluoromethyl)benzamido]benzyl]-1H-indol-1-yl]acetic acid], 6.2 nM.
For `Cc1c(Cc2ccc(NC(=O)c3ccc(Cl)c(Cl)c3)cc2)c2ccccc2n1CC(=O)O` [Compound 4, 2-[3-[4-(3,4-dichlorobenzamido)benzyl]-2-methyl-1H-indol-1-yl]acetic acid], in test [1], the half-maximal inhibitory concentration (IC50) turned out to be 2.7 nM.
In the case of `O=C(O)Cn1nc(Cc2ccc(NC(=O)c3ccc4ccccc4c3)cc2)c2ccccc21` [Compound 5, 2-[3-(4-(2-naphthamido)benzyl)-1H-indazol-1-yl]acetic acid], in test [1], the 50% inhibitory concentration (IC50) worked out at 2.3 nM.
Consider `Cc1c(Cc2ccc(NC(=O)c3ccc(Cl)cc3)cc2)c2ccccc2n1CC(=O)O` [Compound 6, 2-[3-[4-(4-chlorobenzamido)benzyl]-2-methyl-1H-indol-1-yl]acetic acid], for which, in test [1], the IC50 is 0.5 nM.
Still for that read-out and setting: in the case of `CCc1c(Cc2ccc(NC(=O)c3ccc4ccccc4c3)cc2)c2ccccc2n1CC(=O)O` [Compound 7, 2-[3-[4-(2-naphthamido)benzyl]-2-ethyl-1H-indol-1-yl]acetic acid] it was 7 nM.
On the same count and under the same terms, in the case of `O=C(O)Cn1nc(Cc2ccc(NC(=O)c3ccc(Cl)cc3)cc2)c2ccccc21` [Compound 8, 2-[3-[4-(4-chlorobenzamido)benzyl]-1H-indazol-1-yl]acetic acid] it was 9.7 nM.
Take `O=C(O)Cc1nn(Cc2ccc(NC(=O)c3ccc4ccccc4c3)cc2)c2ccccc12` [Compound 9, 2-[1-[4-(2-naphthamido)benzyl]-1H-indazol-3-yl]acetic acid]: in test [1], the concentration for half-maximal inhibition (IC50) worked out at 3.6 nM. For the same compound, in test [2], the “Acidophilic Cell” value is listed as 35.26 ± 4.53** *10^4/mL, the Lymphocytes is reported as 1.33 ± 0.23 *10^4/mL, the Macrophages is 55.38 ± 5.1** *10^4/mL and the “Neutrophilic Granulocyte” value was 6.66 ± 1.87* *10^4/mL. The “Total White Cell Count” value in test [2] is on record as 98.63 ± 4.53** *10^4/mL.
With `O=C(O)Cc1nn(Cc2ccc(NC(=O)c3ccc(Cl)cc3)cc2)c2ccccc12` [Compound 10, 2-[1-[4-(4-chlorobenzamido)benzyl]-1H-indazol-3-yl]acetic acid], the IC50 in test [1] was found to be 7.3 nM.
Regarding `O=C(O)Cc1nn(Cc2ccc(NC(=O)c3ccc4ccccc4c3)cc2)c2ccc(F)cc12` [Compound 11, 2-[1-[4-(2-naphthamido)benzyl]-5-fluoro-1H-indazol-3-yl]acetic acid], the IC50 in test [1] is 1.19 nM.
For `O=C(O)Cc1nn(Cc2ccc(NC(=O)c3ccc4ccccc4c3)cc2)c2cc(F)ccc12` [Compound 12, 2-[1-[4-(2-naphthamido)benzyl]-6-fluoro-1H-indazol-3-yl]acetic acid], the IC50 in test [1] worked out at 14.9 nM.
The same measure, in the same setting: next, `O=C(O)Cc1nn(Cc2ccc(NC(=O)c3ccc4cc(F)ccc4c3)cc2)c2ccccc12` [Compound 13, 2-[1-[4-(6-fluoro-2-naphthamido)benzyl]-1H-indazol-3-yl]acetic acid]: 4.42 nM; `O=C(O)Cc1nn(Cc2ccc(NC(=O)c3ccc4ccccc4c3)cc2)c2ncccc12` [Compound 23, 2-[1-[4-(2-naphthamido)benzyl]-1H-pyrazolo[3,4-b]pyridin-3-yl]acetic acid]: 5.7 nM.
Still for that read-out and setting: next, `O=C(O)CCn1c2c(c3ccccc31)C[C@H](NS(=O)(=O)c1ccc(F)cc1)CC2` [Ramatroban, reference compound]: 10300 nM.
